Patent publication EP4223292A1, “PHARMACEUTICAL COMBINATIONS FOR TREATING CANCER” (Cellestia Biotech AG, priority 2022, dated 2023)

System: Human TNBC cell line HCC1187
Test: In vivo efficacy study, tumor growth delay of subcutaneous HCC1187 xenograft
Design: species or system NSG mice
Conditions: for TGD compared to control (group a): endpoint ten times the initial volume (1000%), difference of MTTE versus control
From the text: Cultured cells were harvested, washed and counted. One million cells per mouse were subcutaneously transplanted into NSG mice. Animals were monitored for tumor growth. Once average tumor volume reached between 50-130 mm^3, animals were randomized for treatment with 6-(4-Tert-Butylphenoxy)Pyridin-3-Amine , Paclitaxel as single agent and 6-(4-Tert-Butylphenoxy)Pyridin-3-Amine + Paclitaxel combination. The treatment regimen was implemented as below: • a) Vehicle • b) 6-(4-Tert-Butylphenoxy)Pyridin-3-Amine single agent for 2 weeks • c) Paclitaxel single agent for 2 weeks and then monitor tumor growth without further treatment • d) 6-(4-Tert-Butylphenoxy)Pyridin-3-Amine + Paclitaxel combination for 2 weeks and then monitor tumor growth without further treatment • e) 6-(4-Tert-Butylphenoxy)Pyridin-3-Amine + Paclitaxel combination for 2 weeks and then continue treatment with 6-(4-Tert-Butylphenoxy)Pyridin-3-Amine alone as single agent and monitor tumor growth.
Tumor dimensions (L=length, W=width) were measured using a digital caliper. Tumor volume was calculated with the following formula: L^∗W^∗W/2. Tumor growth is followed as percentage of initial volume. Median Time To Endpoint (MTTE) was measured in days for an individual group to reach 1000% (10 times) the initial volume as end point. Tumor Growth Delay (TGD) was calculated as difference in days between MTTE of control and treatment groups.

Row | SMILES | TGD compared to control (group a) (group b: single agent for 2 weeks) [days] | efficacy (in words) (single agent alone, HCC1187 xenograft) | TGD compared to control (group a) (groups c, d: treatment for 2 weeks, then no treatment) [days]
1 | CC(C)(C)c1ccc(Oc2ccc(N)cn2)cc1 [6-(4-Tert-Butylphenoxy)Pyridin-3-Amine] | 3 | only modest efficacy | 
2 | CC(=O)O[C@H]1C(=O)[C@@]2(C)[C@H]([C@H](OC(=O)c3ccccc3)[C@]3(O)C[C@H](OC(=O)[C@H](O)[C@@H](NC(=O)c4ccccc4)c4ccccc4)C(C)=C1C3(C)C)[C@]1(OC(C)=O)CO[C@@H]1C[C@@H]2O [Paclitaxel, reference compound] |  |  | 21
